These results are taken from US6433019B1, “Neurotrophic factor secretion promoters” (Sumitomo Pharmaceuticals Company, Limited, priority 1998, dated 2002).

The test system of one data set is BDNF mRNA. The data set can be described thus: BDNF mRNA by quantitative RT-PCR in cultured brain neural cells. Format: cell-based, rat. As to the method:
(§1) The following experiment was done in order to confirm the NO production by neural cells, and to clarify which isozyme of three nitric oxide synthase isozymes (References el and e2) (neuronal type; nNOS, endothelial type; eNOS and inducible type; iNOS) is involved with the NO production, The cultured neural cells were prepared by using the neural cells from the cerebral neocortex of rat embryo (E18), and culturing thereof in a serum free medium for 7 days (Reference e3). The supernatant of the culture medium was collected, and the concentration of nitrite was determined, which was used as an index for the total amount of NO production (FIG. 1A). The concentration of nitrite was determined by Griess' method (Reference e4). During the cultivation, the accumulation of nitrite in the supernatant was increased. The expression of NOS in the cultured cells was detected by Western blotting (FIG. 1B). The protein extracted from the cultured cells being electrophoresed on a nitrocellulose membrane was detected by labeling it with 3 anti-NOS antibodies (Transduction Lab., 1/500 to 1000 dilution), treating with peroxidase-labeled anti-IgG antibody, and visualizing by chemical luminescence reaction (ECL kit by Amersham Pharmacia Biotech). In the cultured neural cell sample, the nNOS-like immunoreaction was detected, but eNOS immunoreaction was hardly detected, and further INOS immunoreaction was not detected at all. The product by nNOS immunoreaction as mentioned above has a molecular weight of about 160 kD, which is coincident with that of nNOS as reported in literatures. […]
(§2) From the finding that the inhibition of NO synthesis in the cultured brain neural cells increased the expression of BDNF gene, it was clarified that endogenous NO affect the regulation of BDNF gene expression. […] SNAP was added to the culture system at various concentrations, and 3 hours and 5 hours thereafter, the BDNF MRNA was determined by quantitative RT-PCR, and the BDNF protein in the cells was determined by EIA, in the same manner as in Example 2.

For data set [1] the following is noted: cited from earlier work; for serious side effects: oral administration to human, estimated.
For another data set, the system named is BDNF protein. The data set can be described thus: BDNF protein in the cells by EIA. Format: cell-based, rat. The note with it: for BDNF protein in the cells: FIG. 2C. Here is the method:
as §1, §2

In the next data set the test system is BDNF-trkB complex. The data set can be described thus: BDNF release: sandwich immunoassay of BDNF-trkB complex on the cell surface. Format: cell-based, rat. The note with it: FIG. 3B. The source says:
The effects of an NO donor on the BDNF release were studied in order to clarify the inhibitory effects of SNAP at a high dose on the BDNF protein accumulation. First, the measurement of BDNF concentration in the culture supernatant was tried, but the concentration of BDNF therein was below a detection limitation value of an ordinary EIA, which was considered that the released BDNF immediately combines with the cell surface, even with the trkB receptor. Then, using an anti-pan-trk receptor antibody, a sandwich immunoassay was tried in order to determine the BDNF combined with a trk B receptor on the cell surface.

Data set [2] has as its system cultured neural cells from the cerebral neocortex of rat embryo (E18). The data set can be described thus: NO production (nitrite, Griess' method) in the cultured neural cells. Format: cell-based. The note with it: 3 hours and 5 hours after addition, FIG. 2A. As to the method: as §1, with “During the cultivation, the accumulation of nitrite in the supernatant was increased.” left out, “all.” for “all. The product by nNOS immunoreaction as mentioned above has a molecular weight of about 160 kD, which is coincident with that of nNOS as reported in literatures.”

In data set [3] the test system is cultured brain neural cells. The data set can be described thus: Growth of cultured neural cells (cytotoxicity). The note with it: high dose (1000 μM). In kind it is cell-based, rat.
The conditions of data set [4]: compared with other NO donors (Reference e5); cited from earlier work.
The conditions of data set [5]: rats, cited from earlier work.

Where two headings read alike, the source gives them in different places.

For `COCC(/C(C)=C/C(=N/O)C(N)=O)[N+](=O)[O-]` (stereo not shown) [NOR1], in the data set with BDNF mRNA (dose not given), the “expression of BDNF gene” value is recorded as “exhibited the same promoting activity”.
Turning to `O=[N+]([O-])O[C@H]1CO[C@H]2[C@@H]1OC[C@H]2O[N+](=O)[O-]` [ISDN, isosorbide dinitrate], in data set [1] (dose up to dozens mg per day), the serious side effects result was “does not show serious side effects”.
As to `N[C@@H](CCC(=O)O)C(=O)O` [glutamic acid], in the data set with BDNF protein, the “BDNF synthesis promoting activity” value is listed as “potent BDNF synthesis promoting activity”. In the data set with BDNF-trkB complex, the “BDNF secretion promoting activity” value was “did not show a distinguished BDNF secretion promoting activity”.
As to `CC(=O)NC(C(=O)O)C(C)(C)SN=O` (racemic) [SNAP, S-nitroso-N-acetyl-DL-penicillamine], the “NO release from the NO donor (nitrite)” value in data set [2] is on record as “NO was released from the NO donor”. The “expression of BDNF gene” value with BDNF mRNA (lower dose (30 to 300 μM), FIG. 2B) is recorded as “increased dose-dependently”. For the same molecule, the “expression of BDNF mRNA” value in the data set with BDNF mRNA (quite high dose (1000 μM), FIG. 2B) is “inhibited”. Also, the “BDNF protein in the cells” value in the data set on BDNF protein (higher dose than 30 μM) is given as “dose-dependent decrease”; with BDNF protein (only at 30 μM), “increased”. Further, in the data set on BDNF-trkB complex (dose of 100 μM or more), the “amount of the BDNF-trkB complex” value was “significantly increased”. Moreover, the growth of cells result in data set [3] is “no change in the growth of cells”. For the same molecule, the cytotoxicity result in data set [4] was “weaker than that of other NO donors”.
The term LD50 denotes the dose at which mortality reaches 50%. Consider `O=[N+]([O-])O[C@@H]1CO[C@H]2[C@@H]1OC[C@@H]2O` [ISMN, isosorbide mononitrate], for which the results for the LD50 in data set [5] (i.v.) and in data set [5] (p.o.) were 40 mg/kg and 1050 to 1550 mg/kg, respectively.
`O=[N+]([O-])OCC(CO[N+](=O)[O-])O[N+](=O)[O-]` [NTG, nitroglycerin]: in data set [1] (dose up to several mg per day), the serious side effects result is reported as “does not show serious side effects”.
As to `N=C(N)NCCC[C@H](N)C(=O)O` [arginine], the toxicity result in data set [1] (up to 20 g per day of arginine glutamate by intravenous drip) is on record as “quite low”.
